Measured values reported in patent publication US9593149B2, “Amylin and calcitonin receptor agonist” (Novo Nordisk A/S, priority 2014, dated 2017).
Converted amounts (≈) assume the structure as drawn. Numbered stars: 1 amine (or outer) side, 2 acyl side, 3 side chain; on linkers, the order of the positions; unused ones are H or OH. Peptide text beside a SMILES is read from it. * marks the point of attachment. C20 diacid = O=C(O)CCCCCCCCCCCCCCCCCCC(=O)*; C18 diacid = O=C(O)CCCCCCCCCCCCCCCCC(=O)*; γGlu = O=C(O)[C@H](CCC(=O)[*:2])N[*:1]

Test: Assay (IV) determination of solubility
Format: physicochemical
Method: Assay (IV)—Determination of Solubility
The mimylin peptide was dissolved in water at ˜500 nmol/ml and mixed 1:1 with a series of buffers (100 mM glycylglycine pH 3.0, 100 mM glycylglycine pH 4.0, 100 mM glycylglycine pH 5.0, 100 mM bistrispropane pH 6.0, 100 mM bistrispropane pH 6.5, 100 mM bistrispropane pH 7.0, 100 mM bistrispropane pH 7.5, 100 mM bistrispropane pH 8.0).

Structure (SMILES)	Solubility (pH 3.0)	solubility at 18 h (pH 4.0) [µM]	Solubility (pH 5.0)	Solubility (pH 6.0)	Solubility (pH 6.5)	Solubility (pH 7.0)	Solubility (pH 7.5)	Solubility (pH 8.0)	Solubility (pH 4.0)
CC(C)C[C@H](NC(=O)CNC(=O)[C@H](CO)NC(=O)[C@H](C)NC(=O)CC[C@H](NC(=O)CCCCCCCCCCCCCCCCCCC(=O)O)C(=O)O)C(=O)N[C@@H](CO)C(=O)N[C@H](C(=O)N[C@@H](C)C(=O)N[C@H](C(=O)N[C@@H](CC(C)C)C(=O)NCC(=O)N[C@@H](CCCNC(=N)N)C(=O)N[C@@H](CC(C)C)C(=O)N[C@@H](CO)C(=O)N[C@@H](CCC(N)=O)C(=O)N[C@@H](CCC(=O)O)C(=O)N[C@@H](CC(C)C)C(=O)N[C@@H](Cc1cnc[nH]1)C(=O)N[C@@H](CCC(=O)O)C(=O)N[C@@H](CC(C)C)C(=O)N[C@@H](CCC(N)=O)C(=O)N[C@H](C(=O)N[C@@H](Cc1ccc(O)cc1)C(=O)N1CCC[C@H]1C(=O)N1CCC[C@H]1C(=O)N[C@H](C(=O)N[C@@H](CCC(=O)O)C(=O)N[C@H](C(=O)NCC(=O)N[C@@H](CO)C(=O)N[C@@H](CCC(N)=O)C(=O)N[C@H](C(=O)N[C@@H](Cc1ccc(O)cc1)C(N)=O)[C@@H](C)O)[C@@H](C)O)[C@@H](C)O)[C@@H](C)O)C(C)C)[C@@H](C)O [compound 125, [N-terminal(C20 diacid-gGlu), des1, 4G, 9V, 15Q, 21Q, 23Y, 25P, 30S, 31Q, 32T, 33Y]mimylin] ({C20 diacid-γGlu}-ASGLSTAVLGRLSQELHELQTYPPTETGSQTY-NH2)	≧200 μM	28 (≈ 109 µg/mL)	≧200 μM	≧200 μM	≧200 μM	≧200 μM	≧200 μM	≧200 μM	–
CC[C@H](C)[C@H](NC(=O)[C@H](C)NC(=O)[C@@H](NC(=O)[C@H](CO)NC(=O)[C@H](CC(C)C)NC(=O)[C@H](CCC(=O)O)NC(=O)[C@H](CO)NC(=O)[C@H](C)NC(=O)[C@H](CCC(=O)O)NC(=O)CCCCCCCCCCCCCCCCC(=O)O)[C@@H](C)O)C(=O)N[C@@H](CC(C)C)C(=O)NCC(=O)N[C@@H](CCCNC(=N)N)C(=O)N[C@@H](CC(C)C)C(=O)N[C@@H](CO)C(=O)N[C@@H](C)C(=O)N[C@@H](CCC(=O)O)C(=O)N[C@@H](CC(C)C)C(=O)N[C@@H](Cc1cnc[nH]1)C(=O)N[C@@H](CCC(=O)O)C(=O)N[C@@H](CC(C)C)C(=O)N[C@@H](C)C(=O)N[C@H](C(=O)N[C@@H](CC(C)C)C(=O)N1CCC[C@H]1C(=O)N[C@@H](CCCNC(=N)N)C(=O)N[C@H](C(=O)N[C@@H](CCC(=O)O)C(=O)N[C@H](C(=O)NCC(=O)N1CCC[C@H]1C(=O)N[C@@H](CCC(=O)O)C(=O)N[C@@H](CO)C(=O)N1CCC[C@H]1C(N)=O)[C@@H](C)O)[C@@H](C)O)[C@@H](C)O [compound 10, [N-terminal(C18 diacid), 9I]mimylin] ({C18 diacid}-EASELSTAILGRLSAELHELATLPRTETGPESP-NH2)	≧200 μM	182 (≈ 687 µg/mL)	≧200 μM	≧200 μM	≧200 μM	≧200 μM	≧200 μM	≧200 μM	–
CC(C)C[C@H](NC(=O)[C@H](C)NC(=O)[C@H](C)NC(=O)[C@@H](NC(=O)[C@H](CO)NC(=O)[C@H](CC(C)C)NC(=O)[C@H](CCC(=O)O)NC(=O)[C@H](CO)NC(=O)[C@H](C)NC(=O)[C@H](CCC(=O)O)NC(=O)CCCCCCCCCCCCCCCCC(=O)O)[C@@H](C)O)C(=O)NCC(=O)N[C@@H](CCCNC(=N)N)C(=O)N[C@@H](CC(C)C)C(=O)N[C@@H](CO)C(=O)N[C@@H](C)C(=O)N[C@@H](CCC(=O)O)C(=O)N[C@@H](CC(C)C)C(=O)N[C@@H](Cc1cnc[nH]1)C(=O)N[C@@H](CCC(=O)O)C(=O)N[C@@H](CC(C)C)C(=O)N[C@@H](C)C(=O)N[C@H](C(=O)N[C@@H](CC(C)C)C(=O)N1CCC[C@H]1C(=O)N[C@@H](CCCNC(=N)N)C(=O)N[C@H](C(=O)N[C@@H](CCC(=O)O)C(=O)N[C@H](C(=O)NCC(=O)N1CCC[C@H]1C(=O)N[C@@H](CCC(=O)O)C(=O)N[C@@H](Cc1cnc[nH]1)C(=O)N1CCC[C@H]1C(N)=O)[C@@H](C)O)[C@@H](C)O)[C@@H](C)O [compound 18, [N-terminal(C18 diacid), 32H]mimylin] ({C18 diacid}-EASELSTAALGRLSAELHELATLPRTETGPEHP-NH2)	≧200 μM	–	≧200 μM	≧200 μM	≧200 μM	≧200 μM	≧200 μM	≧200 μM	≧200 μM
CC(C)C[C@H](NC(=O)[C@H](C)NC(=O)[C@H](C)NC(=O)[C@@H](NC(=O)[C@H](CO)NC(=O)[C@H](CC(C)C)NC(=O)[C@H](CCC(=O)O)NC(=O)[C@H](CO)NC(=O)[C@H](C)NC(=O)CC[C@H](NC(=O)CCCCCCCCCCCCCCCCCCC(=O)O)C(=O)O)[C@@H](C)O)C(=O)NCC(=O)N[C@@H](CCCNC(=N)N)C(=O)N[C@@H](CC(C)C)C(=O)N[C@@H](CO)C(=O)N[C@@H](CCC(=O)O)C(=O)N[C@@H](CCC(=O)O)C(=O)N[C@@H](CC(C)C)C(=O)N[C@@H](Cc1cnc[nH]1)C(=O)N[C@@H](CCC(=O)O)C(=O)N[C@@H](CC(C)C)C(=O)N[C@@H](C)C(=O)N[C@H](C(=O)N[C@@H](CC(C)C)C(=O)N1CCC[C@H]1C(=O)N[C@@H](CCCNC(=N)N)C(=O)N[C@H](C(=O)N[C@@H](CCC(=O)O)C(=O)N[C@H](C(=O)NCC(=O)N[C@@H](CO)C(=O)NCC(=O)N[C@@H](CO)C(=O)N1CCC[C@H]1C(N)=O)[C@@H](C)O)[C@@H](C)O)[C@@H](C)O [compound 66, [N-terminal(C20 diacid-gGlu), des1, 15E, 30S, 31G]mimylin] ({C20 diacid-γGlu}-ASELSTAALGRLSEELHELATLPRTETGSGSP-NH2)	≧200 μM	–	≧200 μM	≧200 μM	≧200 μM	≧200 μM	≧200 μM	≧200 μM	≧200 μM
CC(C)C[C@H](NC(=O)[C@H](CCC(=O)O)NC(=O)[C@H](Cc1cnc[nH]1)NC(=O)[C@H](CC(C)C)NC(=O)[C@H](CCC(=O)O)NC(=O)[C@H](C)NC(=O)[C@H](CO)NC(=O)[C@H](CC(C)C)NC(=O)[C@H](CCCNC(=N)N)NC(=O)CNC(=O)[C@H](CC(C)C)NC(=O)[C@@H](NC(=O)[C@H](C)NC(=O)[C@@H](NC(=O)[C@H](CO)NC(=O)[C@H](CC(C)C)NC(=O)[C@H](CCC(=O)O)NC(=O)[C@H](CO)NC(=O)[C@H](C)NC(=O)[C@H](CCC(=O)O)NC(=O)CCCCCCCCCCCCCCCCC(=O)O)[C@@H](C)O)C(C)C)C(=O)N[C@@H](C)C(=O)N[C@H](C(=O)N[C@@H](CC(C)C)C(=O)N1CCC[C@H]1C(=O)N[C@@H](CCCNC(=N)N)C(=O)N[C@H](C(=O)N[C@@H](CCC(=O)O)C(=O)N1CCC[C@H]1C(=O)NCC(=O)N1CCC[C@H]1C(=O)N[C@@H](CCC(=O)O)C(=O)N[C@@H](CO)C(=O)N1CCC[C@H]1C(N)=O)[C@@H](C)O)[C@@H](C)O [compound 32, [N-terminal(C18 diacid), 9V, 28P]mimylin] ({C18 diacid}-EASELSTAVLGRLSAELHELATLPRTEPGPESP-NH2)	≧200 μM	–	≧200 μM	≧200 μM	≧200 μM	≧200 μM	≧200 μM	≧200 μM	≧200 μM
